Each block holds one compound with its values, some of them ahead of it.
What was measured:
[1] = Phase I pharmacokinetics of BIBW 2992 monotherapy in cancer patients with advanced solid tumors; type: in vivo, human (cancer patients)
Procedure: In four Phase I studies in cancer patients with various advanced solid tumors the pharmacokinetik (PK) characteristics of BIBW 2992 were analyzed. Representative for all of the studies and all the tested dose groups (10 to 100 mg) the 40 mg dose group from one trial is being described in more detail. […] BIBW 2992 plasma concentrations increased after oral administration with peak plasma concentrations mostly around 2-5 hours after dosing. Plasma concentrations declined within the next hours (up to 9 h after dosing), displaying a first disposition phase.
The variability (gCV=geometric coefficient of variation) of the plasma concentrations of the active substance at the different time points was 109-159% up to 9 hours after drug administration but 66.9 to 72.9% at later time points (24 hours after drug administration).

[2] = Phase I pharmacokinetics of BIBW 2992 together with docetaxel in cancer patients; type: in vivo, human (cancer patients); details: once daily dosing, visual inspection
[3] = Bulk densities (poured, tapped; Ph. Eur. 2.9.15) and Hausner factor of powders; type: physicochemical; details: for Hausner Factor (ρT/ρP) / Poured density (ρP) / Tapped density (ρT): un-milled drug substance
Procedure: Bulk density is measured according to Ph. Eur. 2.9.15 (European Pharmacopoeia, 4. Ed.) as poured density. The tapped density is measured according to Ph. Eur. 2.9.15 (see also Voigt R., Lehrbuch der pharmazeutischen Technologie [Textbook of Pharmaceutical Technology], Verlag Chemie, 5th Edition, page 148). The Hausner factor is a measure for the flowability/compressibility of powders and ideally should be close to 1. […] They range from 0.12 to 0.40 g/mL, caused by different needle lengths (Table 2). The roller compaction step was introduced for densification of the material (see Table 3), which may have • a variability of the poured density between […] (see Table 1) and • a Hausner Factor between 1.05 and 1.61 (see Table 1).

[4] = Tablet content uniformity (RSD) before and after roller compaction and sieving; type: physicochemical; details: roller compaction, Sieve A
[5] = Chemical stability of the API against moisture / wet granulation; type: physicochemical
[6] = 10 to 100 mg, qd dosing, single dose and steady state
[7] = batch 1, roller compaction, Sieve A, Sieve B
[8] = batch 1, roller compaction, Sieve A, Sieve C
[9] = batch 1, roller compaction, Sieve A, no sieving 2
[10] = batch 2, roller compaction, Sieve A, Sieve C
[11] = batch 3, roller compaction, Sieve A, Sieve C

variability (gCV) of the plasma concentrations ([1]; 40 mg dose group, n=17, time points up to 9 hours after drug administration): 109-159%
time of peak plasma concentrations after dosing ([1]; 40 mg once daily oral, day 27 of Treatment Period 1, n=17): 2 to 5 h
gMean AUCτ,ss dose dependence [1, 6]: increased in a dose-proportional manner
gMean Cmax,ss dose dependence [1, 6]: increased in a dose-proportional manner
Cpre,ss (plasma concentration before drug administration at steady state) dose dependence ([1]; various clinical trials, visual inspection, data not shown): no deviation from dose-proportionality
SMILES: CN(C)C/C=C/C(=O)Nc1cc2c(Nc3ccc(F)c(Cl)c3)ncnc2cc1O[C@H]1CCOC1 [BIBW 2992, 4-[(3-chloro-4-fluorophenyl)amino]-6-{[4-(N,N-dimethylamino)-1-oxo-2-buten-1-yl]amino}-7-((S)-tetrahydrofuran-3-yloxy)-quinazoline]
disposition kinetics ([1]; 40 mg once daily oral, day 27 of Treatment Period 1): at least biexponential disposition kinetics
AUC and Cmax dose dependence [2]: no sign for a deviation from a dose proportional increase

Poured density ([3]; Table 3, drug substance batch 1, before processing): 0.12 g/mL
Poured density ([3]; Table 3, drug substance batch 2, before processing): 0.31 g/mL
Poured density ([3]; Table 3, drug substance batch 3, before processing): 0.40 g/mL
Poured density of Final Blend ([3]; batch 1, no roller compaction, no sieving): 0.40 g/mL
Poured density of Compacted Intermediate of BIBW 2992 MA2 [3, 7]: 0.29 g/mL
Poured density of Final Blend [3, 7]: 0.53 g/mL
Poured density of Compacted Intermediate of BIBW 2992 MA2 [3, 8]: 0.24 g/mL
Poured density of Final Blend [3, 8]: 0.53 g/mL
Poured density of Compacted Intermediate of BIBW 2992 MA2 [3, 9]: 0.33 g/mL
Poured density of Final Blend [3, 9]: 0.56 g/mL
Poured density of Compacted Intermediate of BIBW 2992 MA2 [3, 10]: 0.41 g/mL
Poured density of Final Blend [3, 10]: 0.60 g/mL
Poured density of Compacted Intermediate of BIBW 2992 MA2 [3, 11]: 0.36 g/mL
Poured density of Final Blend [3, 11]: 0.60 g/mL
Hausner Factor (ρT/ρP) ([3]; batch 0): 1.20
Poured density (ρP) ([3]; batch 0): 0.23 g/mL
Tapped density (ρT) ([3]; batch 0): 0.28 g/mL
Hausner Factor (ρT/ρP) ([3]; batch 1): 1.33
Poured density (ρP) ([3]; batch 1): 0.12 g/mL
Tapped density (ρT) ([3]; batch 1): 0.16 g/mL
Hausner Factor (ρT/ρP) ([3]; batch 2): 1.08
Poured density (ρP) ([3]; batch 2): 0.40 g/mL
Tapped density (ρT) ([3]; batch 2): 0.43 g/mL
Hausner Factor (ρT/ρP) ([3]; batch 3): 1.26
Poured density (ρP) ([3]; batch 3): 0.31 g/mL
Tapped density (ρT) ([3]; batch 3): 0.39 g/mL
RSD- Tablet Content (High Dose) ([4]; batch 1, Sieve B): 1.4%
RSD- Tablet Content (Low Dose) ([4]; batch 1, Sieve B): 3.6%
RSD- Tablet Content (High Dose) ([4]; batch 1, Sieve C): 1.0%
RSD- Tablet Content (Low Dose) ([4]; batch 1, Sieve C): 1.4%
RSD- Tablet Content (High Dose) ([4]; batch 1, no sieving 2): 3.4%
RSD- Tablet Content (Low Dose) ([4]; batch 1, no sieving 2): 7.7%
RSD- Tablet Content (High Dose) ([4]; batch 2, Sieve C): 0.8%
RSD- Tablet Content (High Dose) ([4]; batch 3, Sieve C): 1.7%
chemical stability against moisture ([5]; drug substance as described in WO 2005/037824): susceptibility against moisture
SMILES: CN(C)C/C=C/C(=O)Nc1cc2c(Nc3ccc(F)c(Cl)c3)ncnc2cc1O[C@H]1CCOC1.O=C(O)/C=C\C(=O)O.O=C(O)/C=C\C(=O)O [BIBW 2992 MA2]
stability during wet granulation ([5]; wet granulation processing): underwent hydrolytical decomposition and further degradation reaction

Reference: patent publication US8545884B2, “Solid pharmaceutical formulations comprising BIBW 2992” (Boehringer Ingelheim International GmbH, priority 2008, dated 2013)
